Consider five compounds from patent US20220017501A1, “MICROBIOCIDAL THIAZOLE DERIVATIVES” (SYNGENTA PARTICIPATIONS AG, priority 2018, published 2022).

In data set [1] the test system is Magnaporthe grisea (Pyricularia oryzae). The experiment in a line: whole plant or invertebrate. Particulars: foliar, read-out: control of Magnaporthe grisea. Format: in vivo.
Data set [2] deals with Mycosphaerella graminicola (Septoria tritici). Kind of data set: Mycosphaerella graminicola (Septoria tritici) / liquid culture (Septoria blotch). Format: cell-based. Particulars: Zymoseptoria tritici, growth inhibition photometrically 4-5 days after application, read-out: control of Mycosphaerella graminicola. The protocol:
Example B16: Mycosphaerella Graminicola (Septoria Tritici)/Liquid Culture (Septoria Blotch) Conidia of the fungus from cryogenic storage are directly mixed into nutrient broth (PDB potato dextrose broth). After placing a (DMSO) solution of test compound into a microtiter plate (96-well format), the nutrient broth containing the fungal spores is added. The test plates are incubated at 24° C. and the inhibition of growth is determined photometrically 4-5 days after application. […] […].23.

The test system of data set [3] is Pyrenophora teres. Kind of data set: Pyrenophora teres / barley / leaf disc preventative (net blotch). In kind it is in vivo. Particulars: foliar, barley leaf segments, compared to untreated control. The protocol:
Example B14: Pyrenophora Teres/Barley/Leaf Disc Preventative (Net Blotch) Barley leaf segments cv. Hasso are placed on agar in a multiwell plate (24-well format) and sprayed with the formulated test compound diluted in water. The leaf […] inoculated with a spore suspension of the fungus 2 days after application. The inoculated leaf segments are incubated at 20° C. and 65% rh under a light regime of 12 h light/12 h darkness in a climate cabinet and the activity of a compound is assessed as disease control compared to untreated when an appropriate level of disease damage appears in untreated check leaf segments (5-7 days after application). […] […].23.

A short description of data set [4]: Photostability, thin-film irradiation (Atlas Suntest). Format: physicochemical. Particulars: thin film on glass, filtered xenon lamp 750 W/m2; time for first 50% loss. On the procedure:
Throughout the following description, LogP means logarithm of the partition coefficient, ppm means parts per million, and T50 represents the half-time of the compound under irradiation conditions.
Photostability tests were carried out by irradiation of thin-film deposits of compounds and 20 formulations on glass surfaces, using a filtered xenon lamp system (Atlas Suntest) which reproduces the spectrum and intensity of sunlight. The spectral output power of the Suntest was set to 750 W/m2, which is the typical daily maximum irradiance level at noon (UK, midsummer).
Test compounds were typically dissolved in HPLC grade methanol to give 1 g/L stock solutions. Alternatively, formulated compounds were suspended in water at the same concentration. 2 μL droplets of test solutions were spotted onto microscope cover slips in a 3D printed holder, allowed to dry then irradiated in the Suntest for varying times. […] Solutions were analysed by reverse phase HPLC, typically using a Waters UPLC system with Photodiode Array (PDA) and Waters columns (BEH C18, 100×2.1mm×1.7 μm) using mixed aqueous:acetonitrile mobile phase, acidifed with 0.2% formic acid. Peak detection was at the optimum wavelength for each candidate compound and PDA peak areas were used for quantification. […]

The format of data set [5] is physicochemical. Particulars: for Solubility in water: pH 7.2. On the procedure: Saturated solutions of test compounds were prepared in either aqueous buffer solutions (10 mM mixed phosphate, pH 7.20) or in heptane. Typically 1 mg of test compound in a 2 dram vial with 1 mL of buffer or heptane was left overnight (20 hours) on a roller shaker after an initial 20 minute period in a sonic bath. Saturated samples were then filtered through Millex-HV 0.45 micron syringe driven filters (aqueous or non-aqueous version dependent on solvent). […] Protocol variations included pre-saturation of the filters for compounds expected to have very low solubility, and centrifugation of the saturated samples for oils.

Data set [6] deals with Mycosphaerella arachidis (Cercospora arachidicola). Kind of data set: Mycosphaerella arachidis (Cercospora arachidicola) / liquid culture (early leaf spot). In kind it is cell-based. Particulars: growth inhibition photometrically 4-5 days after application, read-out: control of Mycosphaerella arachidis. The protocol: Example B8: Mycosphaerella Arachidis (Cercospora Arachidicola)/Liquid Culture (Early Leaf Spot) Conidia of the fungus from cryogenic storage are directly mixed into nutrient broth (PDB potato dextrose broth). After placing a (DMSO) solution of test compound into a microtiter plate (96-well format), the nutrient broth containing the fungal spores is added. The test plates are incubated at 24° C. and the inhibition of growth is determined photometrically 4-5 days after application. […] […].23.

The test system of data set [7] is Monographella nivalis (Microdochium nivale). The experiment in a line: Monographella nivalis (Microdochium nivale) / liquid culture (foot rot cereals). Format: cell-based. Particulars: growth inhibition photometrically 4-5 days after application, read-out: control of Monographella nivalis. The protocol: Example B7: Monographella Nivalis (Microdochium Nivale)/Liquid Culture (Foot Rot Cereals) Conidia of the fungus from cryogenic storage are directly mixed into nutrient broth (PDB potato dextrose broth). After placing a (DMSO) solution of test compound into a microtiter plate (96-well format), the nutrient broth containing the fungal spores is added. The test plates are incubated at 24° C. and the inhibition of growth is determined photometrically 4-5 days after application. […] […].23.

The subject of data set [8] is Fusarium culmorum. Format: in vivo. Particulars: 200 ppm; wheat spikelets, preventative; compared to untreated control.
For data set [9], the system named is Blumeria graminis f. sp. tritici (Erysiphe graminis f. sp. tritici). Kind of data set: Blumeria graminis f. sp. tritici / wheat / leaf disc preventative (powdery mildew on wheat). Particulars: foliar, wheat leaf segments, compared to untreated control. Format: in vivo. On the procedure:
Example B4: Blumeria Graminis f. sp. Tritici (Erysiphe Graminis f. sp. Tritici)/Wheat/Leaf Disc Preventative (Powdery Mildew on Wheat) Wheat leaf segments cv. Kanzler are placed on agar in a multiwell plate (24-well format) and sprayed with the formulated test compound diluted in water. The leaf disks are inoculated by shaking powdery mildew infected plants above the test plates 1 day after application. The inoculated leaf disks are incubated at 20° C. and 60% rh under a light regime of 24 h darkness followed by 12 h light/12 h darkness in a climate chamber and the activity of a compound is assessed as percent disease control compared to untreated when an appropriate level of disease damage appears on untreated check leaf segments (6-8 days after application). […].23.

Data set [10] relates to Glomerella lagenarium (Colletotrichum lagenarium). Kind of data set: Glomerella lagenarium (Colletotrichum lagenarium) / liquid culture (anthracnose). In kind it is cell-based. Particulars: Colletotrichum orbiculare, growth inhibition photometrically 3-4 days after application, read-out: control of Glomerella lagenarium. On the procedure: Example B3: Glomerella Lagenarium (Colletotrichum Lagenarium)/Liquid Culture (Anthracnose) Conidia of the fungus from cryogenic storage are directly mixed into nutrient broth (PDB potato dextrose broth). After placing a (DMSO) solution of test compound into a microtiter plate (96-well format), the nutrient broth containing the fungal spores is added. The test plates are incubated at 24° C. and the inhibition of growth is measured photometrically 3-4 days after application.

Data set [11] can be described thus: physchem. Particulars: pH 7.
For data set [12], the system named is Puccinia recondita f. sp. tritici. The experiment in a line: Puccinia recondita f. sp. tritici / wheat / leaf disc preventative (brown rust). Particulars: foliar, wheat leaf segments, preventative (inoculated 1 day after application), compared to untreated control, read-out: control of Puccinia recondite f. sp. tritici. In kind it is in vivo. The protocol: Example B12: Puccinia Recondita f. sp. Tritici/Wheat/Leaf Disc Preventative (Brown Rust) Wheat leaf segments cv. Kanzler are placed on agar in multiwell plates (24-well format) and sprayed with the formulated test compound diluted in water. The leaf disks are inoculated with a spore suspension of the fungus 1 day after application. The inoculated leaf segments are incubated at 19° C. and 75% rh under a light regime of 12 h light/12 h darkness in a climate cabinet and the activity of a compound is assessed as percent disease control compared to untreated when an appropriate level of disease damage appears in untreated check leaf segments (7-9 days after application). […] […].23.

Bounds are passed on as bounds.

Consider `Cc1sc(N(C#N)c2cc(F)nc(F)c2)nc1C(=O)NC1CCC1(C)C` (centres unmarked) [I.b.23, 2-[cyano-(2,6-difluoro-4-pyridyl)amino]-N-(2,2-dimethylcyclobutyl)-5-methyl-thiazole-4-carboxamide], for which the pest or weed control at 200 ppm in data set [1], in data set [3] and in data set [9] was no less than 80% in each case. Moreover, the inhibition of growth at 20 ppm in [2], in [6], in data set [7] and in data set [10] was no less than 80% throughout. The “Photostability T50” value in data set [4] was found to be 11 h. The same compound came in with a Solubility in heptane in data set [5] of 699 ppm. For the same compound, the Solubility in water in data set [5] was 2.5 ppm. In addition, the “control of Fusarium culmorum” value in data set [8] is “at least 80%”. Also, the chromatographic logP in [11] was 3.76.

For `Cc1sc(N(C#N)c2cc(F)nc(F)c2)nc1C(=O)NC1(C)CCCC1` [I.g.23, 2-[cyano-(2,6-difluoro-4-pyridyl)amino]-5-methyl-N-(1-methylcyclopentyl)thiazole-4-carboxamide], the pest or weed control at 200 ppm in [1], in data set [3] and in [9] was no less than 80% throughout. Also, the inhibition of growth at 20 ppm in data set [2], in data set [6], in data set [7] and in [10] was no less than 80% throughout.

In the case of `Cc1sc(Nc2cc(F)nc(F)c2)nc1C(=O)NC1CCC1(C)C` (centres unmarked) [Compound E-0, 2-[(2,6-difluoro-4-pyridyl)amino]-N-(2,2-dimethylcyclobutyl)-5-methyl-thiazole-4-carboxamide, reference compound], the “Photostability T50” value in data set [4] was found to be 3.5 h. Moreover, in [5], the Solubility in heptane amounted to 4.1 ppm and the Solubility in water was 0.70 ppm. The chromatographic logP in [11] is 5.08.

As for `Cc1sc(N(C#N)c2cc(F)nc(F)c2)nc1C(=O)NC1CCC12CCCC2` (centres unmarked) [I.c.23, 2-[cyano-(2,6-difluoro-4-pyridyl)amino]-5-methyl-N-spiro[3.4]octan-3-yl-thiazole-4-carboxamide], the pest or weed control at 200 ppm in data set [1], in data set [3] and in data set [9] was no less than 80% each time. The inhibition of growth at 20 ppm in [2], in [6], in [7] and in [10] was no less than 80% each time.

Consider `Cc1sc(N(C#N)c2cncc(F)c2)nc1C(=O)NC1CCC1(C)C` (centres unmarked) [I.b.18, 2-[cyano-(5-fluoro-3-pyridyl)amino]-N-(2,2-dimethylcyclobutyl)-5-methyl-thiazole-4-carboxamide], for which the melting point was 150 to 152 °C. Besides, the pest or weed control at 200 ppm in data set [1] was no less than 80%. Moreover, in data set [2], the inhibition of growth at 20 ppm was no less than 80%. Moreover, the inhibition of growth at 20 ppm in [6] was no less than 80%. Moreover, the inhibition of growth at 20 ppm in [7] is no less than 80%. For the same compound, the pest or weed control at 200 ppm in data set [12] is no less than 80%. In data set [9], this compound registered a pest or weed control at 200 ppm of no less than 80%. In addition, the inhibition of growth at 20 ppm in data set [10] was no less than 80%.
